In paper PMC4519959, “Baicalin Protects Mice from Aristolochic Acid I-Induced Kidney Injury by Induction of CYP1A through the Aromatic Hydrocarbon Receptor” (International Journal of Molecular Sciences, 2015):

What was measured:
AAI-induced renal damage = experiment: AAI nephrotoxicity in mice (serum BUN, CRE, kidney H&E histopathology); assay type: in vivo, C57BL/6 mice
From the text: Mice were pretreated with baicalin for three days.
Figure 2 Effects of baicalin on aristolochic acid I (AAI) nephrotoxicity. Blood samples were collected to obtain serum for the measurement of blood urea nitrogen (BUN) (A) and creatinine (CRE) (B); (C) Kidneys were collected to perform hematoxylin and eosin (H&E) staining. Arrowheads, tubular dilation; stars, tubular necrosis and granular casts. Scale bar, 100 μm.
Male C57BL/6 mice (6–7 weeks old, 20–22 g) were obtained from Shanghai Laboratory Animal Center. All animal experiments were approved by the Shanghai Animal Care and Use Committee (Certificate No. SCXK [Shanghai] 2002-0010). […] Each group received different treatments as defined in Figure 7. Blood and liver tissues were collected and stored at −80 °C until use. Serum blood urea nitrogen (BUN) and creatinine (CRE) were measured by an automatic HITACHI Clinical Analyzer Model 7080 (Hitachi, Tokyo, Japan).
Kidneys were collected at the indicated time points and fixed in 10% formalin solution before being embedded in paraffin for sectioning into 5-μm-thick sections. Sections were stained with hematoxylin and eosin (H&E) using standard pathology procedures and evaluated by a pathologist as described previously.

[1] = Pharmacokinetics of AAI and AAIa in mouse plasma (HPLC); assay type: in vivo, C57BL/6 mice; conditions: for AUC / Cmax / Tmax / t1/2: AAI in mouse plasma
From the text: AAIa is the major metabolite of AAI oxidative metabolism by CYP1A. We studied the pharmacokinetics of AAI and its metabolites in vivo. […] Simultaneously, the level of AAIa, the major metabolite of AAI, was higher in the plasma of the baicalin-pretreated group than that in the AAI group (Figure 3B).
(§1) Figure 3 Levels of AAI and its major metabolite AAIa in the plasma, liver, and kidney. Blood samples were collected from mice at the indicated time points after AAI injection. Plasma levels of AAI (A) and AAIa (B) were measured by high-performance liquid chromatography (HPLC); Tissue samples from mice were collected at 30 min after AAI injection to determine the levels of AAI (C) and AAIa (D).
(§2) Blood samples (40 μL each) were collected in heparin-coated capillaries and mixed with 50 μL saline. The samples were spun at 3000× g for 10 min at 4 °C. Tissue samples were homogenized in saline and spun at 14,000× g for 10 min, and the supernatants were then mixed with 100 μg/mL (final concentration) indomethacin (internal standard, IS) and 2 volumes of methanol and spun again at 14,000× g for 5 min to remove precipitated proteins. Aliquots of the final supernatants were analyzed and quantified for the levels of AAI and its metabolite AAIa by high-performance liquid chromatography (HPLC), as described below.
The quantification of AAI and its metabolite AAIa was carried out with a Waters 9625 HPLC system (Sunnyvale, CA, USA). For AAI, the linear ranges of the calibration curves were 0–100 μg/mL in the plasma, liver, and kidney, the regression equations were y = 32.186x + 1.1609 (r^2 = 0.9992), y = 38.261x − 1.2753 (r^2 = 0.9688), and y = 80.334x + 1.7436 (r^2 = 0.9987), respectively, where y is the peak area and x is the concentration of the analyte. The identity of AAIa was confirmed with synthesized standards provided by Minghua Xu (Shanghai Institute of Materia Medica, Shanghai, China).

[2] = tested on: X1 (+1 to −2867 of CYP1A1) segment of the CYP1A promoter; experiment: Luciferase reporter assay pGL4.10-X1 in HepG2 cells; assay type: cell-based, human; conditions: baicalin 1, 10 or 50 μM, BNF 50 μM, normalized to renilla luciferase
From the text: (§3) Two pGL4.10 luciferase plasmids containing X1 (+1 to −2867 of CYP1A1) and X2 (−21,148 to −24,409 of CYP1A1; Figure 6A) segments were transfected into HepG2 cells to investigate the effects of baicalin.
(§4) Figure 6 Effects of baicalin on the AhR-mediated activation of different segments of the CYP1A promoter in HepG2 cells. (A) Location of two insert segments, X1 and X2; and (B) Effects of baicalin and BNF on the luciferase activity of pGL4.10-X1; (C) Effects of baicalin and BNF on the luciferase activity of pGL4.10-X2. Luciferase activity was determined by firefly luciferase assay with data normalized to renilla luciferase activity. The results are expressed as the activity in drug treatment groups relative to that of the vehicle control. Each value is expressed as the mean ± SD. * p < 0.05, ** p < 0.01, *** p < 0.001 versus the plasmid only group. […]
(§5) HepG2 cells were seeded at a density of 1.0 × 10^5 cells/mL in 6-well plates to achieve ~50% confluence the next day and were then transfected with pGL4.10-X1/2 plasmids using Lipofectamine 2000 (Invitrogen). […] Thereafter, cells were collected and further assayed for firefly luciferase activity, which was normalized to the activity of renilla luciferase, using the Dual-Luciferase Reporter Assay System (Promega, Madison, WI, USA) and a Biotek Synergy 4 Microplate reader (Biotek, Winooski, VT, USA). […]

[3] = tested on: X2 (−21,148 to −24,409 of CYP1A1) segment of the CYP1A promoter; experiment: Luciferase reporter assay pGL4.10-X2 in HepG2 cells; assay type: cell-based, human; conditions: baicalin 1, 10 or 50 μM, BNF 50 μM, normalized to renilla luciferase
From the text: as §3, §4, §5

CYP1A1 [4] = experiment: CYP1A1 mRNA and protein expression in Fa2N-4 cells (real-time PCR, Western blot); assay type: cell-based, human; conditions: 24 h
Description: (§6) The immortalized hepatocyte cell line Fa2N-4 (Xenotech, Kansas City, KS, USA) was maintained in BEGM Bullet kit medium with 10% heat inactivated fetal bovine serum (FBS) and 1% antibiotic-antimycotic solution (Invitrogen, Carlsbad, CA, USA) at 37 °C in a humidified atmosphere of 95% air and 5% CO2. Fa2N-4 cells were plated in 6-well plates to achieve ~80% confluence next day. Cells were collected at 24 h after treatment with vehicle or baicalin (0–100 μM) in the presence or absence of 3ʹ,4ʹ-DMF (2 μM).

CYP1A2 [5] = assay type: cell-based, human; conditions: Fa2N-4 cells, DMF 2 μM with baicalin, 24 h
Description: as §6

CYP1A2 [6] = conditions: mice
CYP1A1 [7] = experiment: Hepatic CYP1A1 mRNA and protein expression in mice; assay type: in vivo, mouse; conditions: baicalin 80 mg/kg daily for 3 days
[8] = Levels of AAI and AAIa in mouse liver and kidney (HPLC); assay type: in vivo, C57BL/6 mice; conditions: baicalin pretreatment; 30 min after AAI 10 mg/kg i.p.; versus AAI group
Description: as §1
To examine whether the change in pharmacokinetics of AAI upon baicalin pretreatment was due to changes in the tissue distribution of AAI, the levels of AAI and AAIa in the livers and kidneys were measured by HPLC.
as §2
The quantification of AAI and its metabolite AAIa was carried out with a Waters 9625 HPLC system (Sunnyvale, CA, USA). […]

CYP1A2 [9] = experiment: Screening of herbal compounds for CYP1A2 induction in Fa2N-4 cells (mRNA, real-time PCR); assay type: cell-based, human; conditions: 10 μM, compared among seven herbal compounds
Description: To screen CYP1A2 inducers, Fa2N-4 cells, a non-tumorigenic immortalized human hepatic cell line, were treated with seven different herbal compounds.
Figure 1 Screening of herbal compounds for their activities in inducing CYP1A2 in Fa2N-4 cells. Cells were pre-treated with candidate compounds at 10 μM. CYP1A2 mRNA was quantified by real-time PCR. con: control (negative control); 1: omeprazole (positive control); 2: kaempferide; 3: catalpol; 4: isorhamnetin; 5: ferulic acid; 6: ligustrazine; 7: astragaloside; 8: baicalin. *** p < 0.001 versus the negative control.
as §6

[10] = AAI 10 mg/kg i.p. after baicalin 80 mg/kg daily for 3 days
[11] = AAI 10 mg/kg i.p. after baicalin 160 mg/kg daily for 3 days
[12] = baicalin 80 or 160 mg/kg daily for 3 days, then AAI 10 mg/kg i.p. on day 4, versus AAI only
[13] = baicalin pretreatment, then AAI 10 mg/kg i.p., versus AAI group

With COc1cccc2c1cc([N+](=O)[O-])c1c(C(=O)O)cc3c(c12)OCO3 [AAI, aristolochic acid I] the “kidney lesions (H&E histopathology)” value (AAI-induced renal damage; AAI 10 mg/kg i.p., seven days after AAI administration) was “extensive tubular necrosis, and tubular dilation”, the AUC [1, 10] was 759.39 ± 23.26 ** min·μg/mL and the Cmax [1, 10] was 4430 ± 240 ng/mL. The Tmax [1, 10] was 10.00 ± 0 min, the t1/2 [1, 10] was 77.96 ± 6.84 min and the AUC [1, 11] was 710.07 ± 33.95 *** min·μg/mL. For the same compound, the Cmax [1, 11] was 3890 ± 430 ng/mL, the Tmax [1, 11] was 9 ± 2.24 min and the t1/2 [1, 11] was 80.83 ± 3.02 min. The AUC ([1]; AAI 10 mg/kg i.p., no baicalin) was 844.96 ± 40.12 µg·min/mL, the Cmax ([1]; AAI 10 mg/kg i.p., no baicalin) was 4990 ± 410 ng/mL and the Tmax ([1]; AAI 10 mg/kg i.p., no baicalin) was 10.00 ± 0 min. It also gave a t1/2 ([1]; AAI 10 mg/kg i.p., no baicalin) of 78.68 ± 12.88 min.
In the case of O=c1cc(-c2ccccc2)oc2ccc3ccccc3c12 [BNF, β-Naphthoflavone, reference compound], the “luciferase activity of pGL4.10-X1 relative to vehicle control” value [2] is reported as “increased the luciferase activity” and the “luciferase activity of pGL4.10-X2 relative to vehicle control” value [3] is reported as “increased the luciferase activity”.
In the case of COc1ccc(-c2cc(=O)c3ccccc3o2)cc1OC [DMF, 3ʹ,4ʹ-dimethoxyflavone, reference compound], the “effect on baicalin-induced CYP1A1 expression” value (CYP1A1 [4]; DMF 2 μM with baicalin) is reported as “abolished” and the “effect on baicalin-induced CYP1A2 expression” value (CYP1A2 [5]) is reported as “abolished”.
In the case of Oc1ccc(/C=C/c2cc(O)cc(O)c2)cc1 [RES, resveratrol, reference compound], the “effect on induction of hepatic CYP1A2 by baicalin” value (CYP1A2 [6]; RES 50 mg/kg with baicalin 80 mg/kg daily for 3 days) is reported as “pronouncedly attenuated”.
In the case of O=C(O)[C@H]1O[C@@H](Oc2cc3oc(-c4ccccc4)cc(=O)c3c(O)c2O)[C@H](O)[C@@H](O)[C@@H]1O [baicalin], the “CYP1A2 expression in the liver at mRNA and protein level” value (CYP1A2 [6]; baicalin 80 mg/kg daily for 3 days) is reported as “pronouncedly increased”, the “blood urea nitrogen (BUN) induced by AAI” value (AAI-induced renal damage; [12]) is reported as “significantly reduced” and the “creatinine (CRE) induced by AAI” value (AAI-induced renal damage; [12]) is reported as “significantly reduced”. The “kidney lesions (H&E histopathology)” value (AAI-induced renal damage; baicalin pretreatment for 3 days, then AAI 10 mg/kg i.p., versus AAI group) was “fewer lesions”, the “CYP1A1 expression at mRNA and protein level” value (CYP1A1 [4]; 100 μM) was “increased” and the CYP1A1 expression (CYP1A1 [4]; 10 or 50 μM) was “relatively mild effect”. For the same compound, the “effect of pretreatment on the level of AAI in mice (plasma, AUC)” value [1, 13] was “markedly decreased”, the “effect of pretreatment on the level of AAIa in the plasma” value [1, 13] was “higher” and the “luciferase activity of pGL4.10-X1 relative to vehicle control” value [2] was “increased the luciferase activity”. For the same compound, the “CYP1A1 expression in the liver at mRNA and protein level” value (CYP1A1 [7]) was “pronouncedly increased”, the “effect of pretreatment on the level of AAI in livers and kidneys” value [8] was “reduced levels” and the “effect of pretreatment on the level of AAIa in livers and kidneys” value [8] was “reduced levels”. For the same compound, the “CYP1A2 gene expression at the mRNA level (induction)” value (CYP1A2 [9]) was “most potent compound in inducing CYP1A2 gene expression” and the “luciferase activity of pGL4.10-X2 relative to vehicle control” value [3] was “increased the luciferase activity”.
